Test results as given in BindingDB's records for doi:10.1021/jm0703035 (Research Triangle Institute, 2007).

The molecules below were run against Sodium-dependent noradrenaline transporter (Homo sapiens, UniProt P23975) (assay: Ligand Binding Assay).
Sodium-dependent noradrenaline transporter, sequence (P23975 whole entry): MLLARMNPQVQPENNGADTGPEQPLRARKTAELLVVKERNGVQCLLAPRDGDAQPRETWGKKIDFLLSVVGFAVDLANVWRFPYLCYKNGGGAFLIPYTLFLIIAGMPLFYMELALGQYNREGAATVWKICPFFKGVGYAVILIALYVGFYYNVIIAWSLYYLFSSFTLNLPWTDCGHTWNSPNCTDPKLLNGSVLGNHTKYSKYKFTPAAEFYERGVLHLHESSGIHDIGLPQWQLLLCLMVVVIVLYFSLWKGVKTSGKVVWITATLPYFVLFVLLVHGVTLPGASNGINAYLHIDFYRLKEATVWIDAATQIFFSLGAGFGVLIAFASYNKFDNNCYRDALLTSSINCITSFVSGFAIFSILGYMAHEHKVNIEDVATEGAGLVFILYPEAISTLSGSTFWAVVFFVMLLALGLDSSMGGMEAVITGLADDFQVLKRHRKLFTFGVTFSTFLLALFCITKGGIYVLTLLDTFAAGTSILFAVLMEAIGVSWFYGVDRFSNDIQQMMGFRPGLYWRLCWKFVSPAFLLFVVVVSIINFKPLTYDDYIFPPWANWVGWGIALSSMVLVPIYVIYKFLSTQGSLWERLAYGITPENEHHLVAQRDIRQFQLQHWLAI
`CN1[C@H]2CC[C@@H]1[C@@H](c1ncc(-c3ccccc3)s1)[C@@H](c1ccc(Cl)cc1)C2` [2-[(1R,2S,3S,5S)-3-(4-chlorophenyl)-8-methyl-8-azabicyclo[3.2.1]octan-2-yl]-5-phenyl-1,3-thiazole] was tested, and the EC50 was 750 nM. `Cc1ccc([C@H]2C[C@@H]3CC[C@H]([C@H]2c2ncc(-c4ccc(Cl)c(Cl)c4)s2)N3C)cc1` [5-(3,4-dichlorophenyl)-2-[(1R,2S,3S,5S)-8-methyl-3-(4-methylphenyl)-8-azabicyclo[3.2.1]octan-2-yl]-1,3-thiazole] was tested, and the EC50 was 4000 nM. `COc1ccc(-c2cnc([C@H]3[C@@H](c4ccc(C)cc4)C[C@@H]4CC[C@H]3N4C)s2)cc1` [5-(4-methoxyphenyl)-2-[(1R,2S,3S,5S)-8-methyl-3-(4-methylphenyl)-8-azabicyclo[3.2.1]octan-2-yl]-1,3-thiazole] was tested, and the EC50 was 1810 nM.

The molecules below were run against Transporter (Rattus norvegicus, UniProt Q63380) (assay: Ligand Binding Assay).
Transporter, sequence (Q63380 whole entry): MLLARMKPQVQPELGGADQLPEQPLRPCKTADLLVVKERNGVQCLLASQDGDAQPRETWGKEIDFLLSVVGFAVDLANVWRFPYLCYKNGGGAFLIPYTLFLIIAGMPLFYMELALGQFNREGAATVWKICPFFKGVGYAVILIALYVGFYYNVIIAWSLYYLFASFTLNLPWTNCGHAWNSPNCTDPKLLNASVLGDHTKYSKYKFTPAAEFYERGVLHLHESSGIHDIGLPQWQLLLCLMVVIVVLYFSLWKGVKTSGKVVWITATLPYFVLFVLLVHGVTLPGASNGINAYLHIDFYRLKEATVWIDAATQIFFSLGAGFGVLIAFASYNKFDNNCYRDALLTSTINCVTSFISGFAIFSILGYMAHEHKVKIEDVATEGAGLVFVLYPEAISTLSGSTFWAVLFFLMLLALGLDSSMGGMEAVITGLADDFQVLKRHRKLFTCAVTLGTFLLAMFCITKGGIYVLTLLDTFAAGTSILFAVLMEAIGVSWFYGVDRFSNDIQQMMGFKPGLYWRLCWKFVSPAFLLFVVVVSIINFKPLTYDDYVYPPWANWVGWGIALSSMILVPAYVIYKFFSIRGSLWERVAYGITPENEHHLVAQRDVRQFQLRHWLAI
Method: Brains from male Sprague-Dawley rats were removed, dissected, and rapidly frozen. Ligand binding experiments were conducted in assay tubes containing radioligand, rat membrane tissue, and test compounds. Incubations were terminated by filtration with through GF/B filters. Results were analyzed using the Equilibrium Binding Data Analysis software (EBDA, Biosoft).
Work on `CN1[C@H]2CC[C@@H]1[C@@H](c1ncc(-c3ccc(Cl)c(Cl)c3)s1)[C@@H](c1ccc(Cl)cc1)C2` [2-[(1R,2S,3S,5S)-3-(4-chlorophenyl)-8-methyl-8-azabicyclo[3.2.1]octan-2-yl]-5-(3,4-dichlorophenyl)-1,3-thiazole] yielded a Ki greater than 2000 nM. For `COc1ccc(-c2cnc([C@H]3[C@@H](c4ccc(Cl)cc4)C[C@@H]4CC[C@H]3N4C)s2)cc1OC` [2-[(1R,2S,3S,5S)-3-(4-chlorophenyl)-8-methyl-8-azabicyclo[3.2.1]octan-2-yl]-5-(3,4-dimethoxyphenyl)-1,3-thiazole], the Ki was greater than 2000 nM. Molecule `CN1[C@H]2CC[C@@H]1[C@@H](c1ncc(-c3cccc([N+](=O)[O-])c3)s1)[C@@H](c1ccc(Cl)cc1)C2` [2-[(1R,2S,3S,5S)-3-(4-chlorophenyl)-8-methyl-8-azabicyclo[3.2.1]octan-2-yl]-5-(3-nitrophenyl)-1,3-thiazole] has a Ki greater than 2000 nM. Molecule `CN1[C@H]2CC[C@@H]1[C@@H](c1ncc(-c3ccc(F)cc3)s1)[C@@H](c1ccc(Cl)cc1)C2` [2-[(1R,2S,3S,5S)-3-(4-chlorophenyl)-8-methyl-8-azabicyclo[3.2.1]octan-2-yl]-5-(4-fluorophenyl)-1,3-thiazole] has a Ki greater than 2000 nM. Molecule `COc1ccc(-c2cnc([C@H]3[C@@H](c4ccc(Cl)cc4)C[C@@H]4CC[C@H]3N4C)s2)cc1` [2-[(1R,2S,3S,5S)-3-(4-chlorophenyl)-8-methyl-8-azabicyclo[3.2.1]octan-2-yl]-5-(4-methoxyphenyl)-1,3-thiazole] has a Ki greater than 2000 nM. Molecule `CN1[C@H]2CC[C@@H]1[C@@H](c1ncc(-c3ccc([N+](=O)[O-])cc3)s1)[C@@H](c1ccc(Cl)cc1)C2` [2-[(1R,2S,3S,5S)-3-(4-chlorophenyl)-8-methyl-8-azabicyclo[3.2.1]octan-2-yl]-5-(4-nitrophenyl)-1,3-thiazole] has a Ki greater than 2000 nM. `Cc1ccc([C@H]2C[C@@H]3CC[C@H]([C@H]2c2ncc(-c4cccc([N+](=O)[O-])c4)s2)N3C)cc1` [2-[(1R,2S,3S,5S)-8-methyl-3-(4-methylphenyl)-8-azabicyclo[3.2.1]octan-2-yl]-5-(3-nitrophenyl)-1,3-thiazole] gave a Ki greater than 4300 nM. `Cc1ccc([C@H]2C[C@@H]3CC[C@H]([C@H]2c2ncc(-c4ccc([N+](=O)[O-])cc4)s2)N3C)cc1` [2-[(1R,2S,3S,5S)-8-methyl-3-(4-methylphenyl)-8-azabicyclo[3.2.1]octan-2-yl]-5-(4-nitrophenyl)-1,3-thiazole] was tested, and the Ki was greater than 2000 nM. For `Cc1ccc([C@H]2C[C@@H]3CC[C@H]([C@H]2c2ncc(-c4ccc(Cl)c(Cl)c4)s2)N3C)cc1` [5-(3,4-dichlorophenyl)-2-[(1R,2S,3S,5S)-8-methyl-3-(4-methylphenyl)-8-azabicyclo[3.2.1]octan-2-yl]-1,3-thiazole], the Ki was greater than 2000 nM. Molecule `COc1ccc(-c2cnc([C@H]3[C@@H](c4ccc(C)cc4)C[C@@H]4CC[C@H]3N4C)s2)cc1OC` [5-(3,4-dimethoxyphenyl)-2-[(1R,2S,3S,5S)-8-methyl-3-(4-methylphenyl)-8-azabicyclo[3.2.1]octan-2-yl]-1,3-thiazole] has a Ki greater than 2000 nM. With `CN1[C@H]2CC[C@@H]1[C@@H](c1ncc(-c3cccc(Br)c3)s1)[C@@H](c1ccc(Cl)cc1)C2` [5-(3-bromophenyl)-2-[(1R,2S,3S,5S)-3-(4-chlorophenyl)-8-methyl-8-azabicyclo[3.2.1]octan-2-yl]-1,3-thiazole] the Ki was greater than 2000 nM. For `Cc1ccc([C@H]2C[C@@H]3CC[C@H]([C@H]2c2ncc(-c4cccc(Br)c4)s2)N3C)cc1` [5-(3-bromophenyl)-2-[(1R,2S,3S,5S)-8-methyl-3-(4-methylphenyl)-8-azabicyclo[3.2.1]octan-2-yl]-1,3-thiazole], the Ki was greater than 2000 nM. For `CN1[C@H]2CC[C@@H]1[C@@H](c1ncc(-c3ccc(Br)cc3)s1)[C@@H](c1ccc(Cl)cc1)C2` [5-(4-bromophenyl)-2-[(1R,2S,3S,5S)-3-(4-chlorophenyl)-8-methyl-8-azabicyclo[3.2.1]octan-2-yl]-1,3-thiazole], the Ki was greater than 2000 nM. `CN1[C@H]2CC[C@@H]1[C@@H](c1ncc(-c3ccc(Cl)cc3)s1)[C@@H](c1ccc(Cl)cc1)C2` [5-(4-chlorophenyl)-2-[(1R,2S,3S,5S)-3-(4-chlorophenyl)-8-methyl-8-azabicyclo[3.2.1]octan-2-yl]-1,3-thiazole] gave a Ki greater than 2000 nM. `Cc1ccc([C@H]2C[C@@H]3CC[C@H]([C@H]2c2ncc(-c4ccc(Cl)cc4)s2)N3C)cc1` [5-(4-chlorophenyl)-2-[(1R,2S,3S,5S)-8-methyl-3-(4-methylphenyl)-8-azabicyclo[3.2.1]octan-2-yl]-1,3-thiazole] was tested, and the Ki was greater than 2000 nM. `Cc1ccc([C@H]2C[C@@H]3CC[C@H]([C@H]2c2ncc(-c4ccc(F)cc4)s2)N3C)cc1` [5-(4-fluorophenyl)-2-[(1R,2S,3S,5S)-8-methyl-3-(4-methylphenyl)-8-azabicyclo[3.2.1]octan-2-yl]-1,3-thiazole] gave a Ki greater than 2000 nM. In the case of `COc1ccc(-c2cnc([C@H]3[C@@H](c4ccc(C)cc4)C[C@@H]4CC[C@H]3N4C)s2)cc1` [5-(4-methoxyphenyl)-2-[(1R,2S,3S,5S)-8-methyl-3-(4-methylphenyl)-8-azabicyclo[3.2.1]octan-2-yl]-1,3-thiazole], the Ki is reported as greater than 2000 nM.
